pEC50: −log10 of the molar value. The source made the active and inactive calls. The rule behind the calls is not given here.
Columns and labels:
Haemonchus contortus = test: Agonist activity at Heaemonchus contortus UNC-49B/C GABAA receptor expressed in Xenopus laevis oocytes at 500 uM by two-electrode voltage-clamp method; assay type: cell-based
[1] = Agonist activity at Heaemonchus contortus UNC-49B/C GABAA receptor expressed in Xenopus laevis oocytes by two-electrode voltage-clamp method; assay type: cell-based; conditions: Haemonchus contortus

In the case of NCC(Cl)CC(=O)O (stereo not drawn), the Activity (Haemonchus contortus) was “inactive”.
With NCC(Br)CC(=O)O (stereo not drawn) the Activity (Haemonchus contortus) was “inactive”.
For NC/C=C/C(=O)O [t-4-AMINOCROTONIC ACID (TACA)], the pEC50 [1] was 3.54.

Reference: ChEMBL document CHEMBL4043196, “Efficient synthesis of the GABAA receptor agonist trans-4-aminocrotonic acid (TACA)” (Bioorg Med Chem Lett, 2017)
